Experimental data: US5843917A, “5-Fluorouracil derivatives” (priority 1993, dated 1998)
Like-named read-outs stand apart in the source and are kept apart here.

How the values were obtained:
DPD = assay: Protection of 5-FU from DPD catabolism by release of 5-EU from nucleosides (urinary recovery of 5-FU in rats); format: in vivo; conditions: rat; oral predose 0.03, 0.3 and 3.0 mg/kg, then 25 mg/kg 5-FU
Experimental: 5-FU and 5-EU bases and nucleosides were dissolved in deionized HPLC grade water immediately prior to dosing. […] 5-EU and 5-EU nucleosides were dosed to animals 0.5 hr prior to dosing with 5-FU and 5-FU nucleosides. Dosing was routinely performed between 11 am and 1 pm. An approximate volume of 300 μL was used for each dose. Rats were placed in individual Nalge metabolism cages, which separate urine and faeces, and continued on a 12 hr light/dark schedule post-dosing.
5 ml of a thoroughly mixed urine sample was filtered through a Millex GS 0.22 μm filter (Millipore, Bedford, Mass.) and frozen prior to HPLC analysis. 1 ml of the thawed primary filtered solution was diluted with 2 ml of water and particulates were removed from this diluted stock solution using a Centrifree micro partition system (Amicon Division, W. R. Grace and Co., Beverly Mass.). […]

[1] = literature reports; combination with 5-fluorouracil or its prodrug; cited from earlier work
uracil reductase = conditions: cited from earlier work
Colon 38 = assay: In vivo antitumor testing with s.c. murine Colon 38 carcinoma in C57BL/6 female mice
Experimental: (§1) In vivo antitumor testing with murine Colon 38 was conducted in-house. C57BL/6 female mice were housed in sterile, polycarbonate, filter-capped Microisolator cages (Lab Products, Inc., Maywood, N.J.) containing sterile hardwood bedding. Mice were fed sterile rodent chow and filter-sterilised water ad libitum. All manipulations of these mice were conducted in laminar-flow biosafety hoods. Colon 38 carcinoma was obtained from the Development Therapeutics Program Tumour Repository. Mice were implanted s.c. with 70 mg tumour fragments using a number 13 trocar. There were 10 mice in the control group that received tumour implants without drug treatment. There were 5 mice in each group treated with the dose and compounds as described below. Treatment began on day 16 post tumour implant and compounds were dosed once/day for 9 days. 5-FU was dosed at 15, 20, 25, 30, and 40 mg/kg.. […] Tumour weights were calculated three times per week from measurements of tumour length and width. Antitumor activity was expressed as the days delay in tumour growth (T-C). T-C was calculated as the difference in the median of days for treated animals minus control animals for tumour mass to double twice post initial day of dosing (Day 16). Tumour-free survivors were not excluded from T-C calculations. Surviving mice were sacrificed after day 56.

[2] = as above; conditions: mouse, in vivo, sc, mice with s.c. Colon 38
Experimental: as §1

[3] = Urinary recovery of 5-FU in rats dosed with the succinate linked nucleoside; format: in vivo; conditions: rat; 25 mg/kg 5-FU equivalent
Experimental: (§2) 5-FU and 5-EU bases and nucleosides were dissolved in deionized HPLC grade water immediately prior to dosing. All animals were dosed once, p.o. via gastric gavage at the indicated mg/kg dose for each compound (See Results Section and Figures). 5-EU and 5-EU nucleosides were dosed to animals 0.5 hr prior to dosing with 5-FU and 5-FU nucleosides. Dosing was routinely performed between 11 am and 1 pm. An approximate volume of 300 μL was used for each dose. Rats were placed in individual Nalge metabolism cages, which separate urine and faeces, and continued on a 12 hr light/dark schedule post-dosing. Mice were treated post-dose in a similar manner with the exception that 5 mice were housed per cage.
Urine from each cage was collected into 0-24 hr and 24-48 hr post-dose fractions. […]
(§3) 5 ml of a thoroughly mixed urine sample was filtered through a Millex GS 0.22 μm filter (Millipore, Bedford, Mass.) and frozen prior to HPLC analysis. […] 100 μL of this solution was quantitated for 5-FU by HPLC on a Waters Associates System (Waters Associates, Milford, Mass.) equipped with a Waters 600E system controller, a Waters 600 solvent delivery system, a Waters model 712 WISP automated sample injector, a Waters 484 tuneable absorbance detector, and a Waters 991 photodiode array detector. […]
Rats were dosed 25 mg/kg 5-FU equivalent with the succinate linked nucleosides. […] 5-FU was not detected in the 24-48 hr urine.

[4] = Urinary recovery of 5-FU in mice dosed with 5-FU or the succinate linked nucleoside; format: in vivo; conditions: mouse; for dose excreted: urine, po, 5 mg/kg
Experimental: as §2
(§4) Urine from each cage was collected into 0-24 hr and 24-48 hr post-dose fractions. Cages were rinsed with deionized water prior to collection of each fraction. The combined volume of urine and rinse was brought to a standard volume with deionized water.
5-FU recovery in mouse urine was determined as above with three exceptions: a Phenomenex 5 μm Extrasil C-18 column (250mm×4.6 mm i.d.; Phenomenex, Torrance, Calif.) was used; an identical gradient with buffer A as aqueous 50 mM formic acid, pH 3.5, with 0.5% acetonitrile and buffer B as aqueous 50 mM formic acid, pH 3.5, with 60% acetonitrile was used; the standard curve was prepared by diluting known concentrations of 5-FU into undosed mouse urine and eluting with the latter described gradient and buffers, instead of isocratic conditions.
For these studies mice were dosed with either 5 mg/kg 5-FU or given an equivalent dose of 5-FU via the succinate linked nucleoside. The urinary recovery of 5-FU was measured in the presence and absence of 5-EU (Table 2). […] When mice were predosed with 5-EU followed by dosing with 5-FU, the urinary recovery of 5-FU was 50%. Mice dosed with the succinate linked nucleoside gave 25-30% urinary recovery of 5-FU available from the linked compound.

[5] = Urinary recovery of 5-FU in rats for 5-FU and various 5-FU containing nucleosides; format: in vivo; conditions: rat, urine, po, p.o., read-out: % 5-FU Recovery 0-24 hr Urine (Average of Two Experiments)
Experimental: as §2, §4
as §3, with “detector. For quantitiation of 5-FU in rat urine, HPLC was performed on a 250 mm×4.6 mm YMC AQ-303 S-5 120A ODS analytical column (YMC, Morris Plains, N.J.) or on a Microsorb C18 analytical column with identical dimensions (Rainin Instrument Co., Woburn, Mass.).” for “detector.”
Plots of UV peak area vs 5-FU concentration were linear between 5 μM and 100 μM. The total urinary recovery of 5-FU was determined by multiplication of the nmoles of 5-FU determined from the standard curve by the dilution factor of 3 (above) and by the standard volume of urine collected. […]

C#Cc1cn([C@H]2C[C@H](O)[C@@H](COP(=O)(O)O)O2)c(=O)[nH]c1=O [2'-deoxy-5'-monophosphate of 5-EU, 1-(2-Deoxy-β-D-Erythro-Pentofuranosyl)-5-Ethynyluracil 5'-Monophosphate]
dose response for urinary recovery of 5-FU (DPD): A direct dose response for urinary recovery of 5-FU was observed

O=c1[nH]c(=O)n([C@H]2C[C@H](O)[C@@H](CO)O2)cc1C=CBr [5-(2-bromovinyl)-2'-deoxyuridine]
effect on 5-fluorouracil metabolism and antitumour activity [1]: enhances the antitumour activity of 5-fluorouracil and 5-deoxy-5-fluorouridine

O=c1[nH]cc(C=CBr)c(=O)[nH]1 [5-(2-bromovinyl)-uracil (BVU), 5-(2-bromovinyl)-uracil]
effect on 5-fluorouracil metabolism and antitumour activity [1]: retards the metabolism of 5-fluorouracil and enhances its antitumour activity
inhibition of dihydrothymidine dehydrogenase (uracil reductase; Cancer Research 46, 1094, 1986): is an inhibitor of dihydrothymidine dehydrogenase

C#Cc1cn([C@H]2C[C@H](OC(=O)CCC(=O)O[C@H]3C[C@H](n4cc(F)c(=O)[nH]c4=O)O[C@@H]3CO)[C@@H](CO)O2)c(=O)[nH]c1=O [Example 1, 5-Ethynyl-5"-fluoro-3',3"-O-succinylbis-(1-(2-deoxy-β-D-erythro-pentofuranosyl)uracil)]
Tumour-free Survivors (Day 56) (Colon 38; 1 mg/kg 5-FU equivalent): 0/5
Antitumour Activity T-C (Colon 38; 1 mg/kg 5-FU equivalent, once/day for 9 days): 12.9 days
Tumour-free Survivors (Day 56) (Colon 38; 2 mg/kg 5-FU equivalent): 2/5
Antitumour Activity T-C (Colon 38; 2 mg/kg 5-FU equivalent, once/day for 9 days): > 27.9 days
MTD ([2]; 5-FU and 5-EU equivalents, read-out: toxic at doses, as 5-FU and 5-EU equivalents): > 4 mg/kg
MTD ([2]; dose of the linked compound, once/day for 9 days, read-out: toxic at doses): > 17.9 mg/kg
5-FU in the 24-48 hr urine [3]: not detected
improvement of 5-FU urinary recovery by 5-EU predose ([4]; predosed with 5-EU then succinate linked nucleoside): no improvement

C#Cc1c[nH]c(=O)[nH]c1=O [Example 5-EU, 5-ethynyluracil]
potency as an inactivator of uracil reductase relative to BVU (uracil reductase; relative to BVU): 100 fold

O=c1[nH]cc(F)c(=O)[nH]1 [Example 5-FU, 5-fluorouracil]
Tumour-free Survivors (Day 56) (Colon 38; 25 mg/kg 5-FU equivalent): 0/5
Antitumour Activity T-C (Colon 38; 25 mg/kg 5-FU equivalent, once/day for 9 days): 14.9 days
Tumour-free Survivors (Day 56) (Colon 38; 30 mg/kg 5-FU equivalent): 0/5
Antitumour Activity T-C (Colon 38; 30 mg/kg 5-FU equivalent, once/day for 9 days): 23.6 days
Tumour-free Survivors (Day 56) (Colon 38; 40 mg/kg 5-FU equivalent): 0/5
Antitumour Activity T-C (column entry Toxic) (Colon 38; 40 mg/kg 5-FU equivalent, once/day for 9 days): Toxic
dose excreted ([4]; 5 mg/kg 5-FU, predosed with 5-EU, read-out: urinary recovery of 5-FU): 50%
dose excreted ([4]; 5 mg/kg equivalent 5-FU, 5-EU predose 2 mg/kg, Table 2, read-out: Recovery 5-FU (%)): 51%
dose excreted ([4]; 5 mg/kg equivalent 5-FU, no predose, Table 2, read-out: Recovery 5-FU (%)): 0%
5-FU detection in the urine ([4]; 5 mg/kg 5-FU, without 5-EU predose): could not be detected
dose excreted at 24 h ([5]; 5 mg/kg, 5-FU 5 mg/kg, 5-EU predose 2 mg/kg): 52%
dose excreted at 24 h ([5]; 5 mg/kg, 5-FU 5 mg/kg, no predose): < 5%
dose excreted at 24 h ([5]; 25 mg/kg, 5-FU 25 mg/kg, 5-EU predose 0.03 mg/kg): 43 to 63%

C#Cc1cn([C@@H]2O[C@H](CO)[C@@H](O)[C@@H]2O)c(=O)[nH]c1=O [arabinoside of 5-EU]
dose response for urinary recovery of 5-FU (DPD): A direct dose response for urinary recovery of 5-FU was observed
